Entries after “also recorded” stand apart in the source; their conditions may differ.
Tested on: BEAS-2B cells
Test: IL-8 release induced by TNF-α on BEAS-2B cells (ELISA on supernatant after 6 h)
Assay type: cell-based, human
Method: BEAS-2B cells were co-incubated with TNF-α (1 pg/mL) alone or with different doses of budesonide (1.5; 0.75; 0.5; 0.1 nM). After 6 hours of incubation, the IL-8 concentration was measured in the supernatant. IL-8 levels are expressed as a percentage of the IL-8 level induced by stimulation with TNF-α for 6 hours. The results correspond to the mean+SEM for at least 3 experiments, n=6-12 technical replicates. *p<0.05 and ***p<0.001 compared with the TNF-α control group.
BEAS-2B cells were co-incubated with TNF-α (1 pg/mL) alone or with a strain of E. faecalis (CNCM I-4969; I-5701; I-5699) MOI 10:1, and/or 0.1 nM of budesonide, or 0.5 nM of budesonide. After 6 hours of incubation, the IL-8 concentration was measured in the supernatant by ELISA. IL-8 levels are expressed as a percentage of the IL-8 level induced by stimulation with TNF-α for 6 hours. The results correspond to the median of 3 experiments, n=9 technical replicates. *p<0.05 and ***p<0.001 compared with the TNF-α control group, by a Kruskal-Wallis non-parametric test followed by Dunn's post-test.
Human bronchial cells (BEAS-2B) are cultured and a pro-inflammatory situation is induced via the addition of TNF-α to the medium. The BEAS-2B cells then respond by releasing IL-8 into the medium. The IL-8 assay after 6 hours is used to estimate the activation state of the cells, which can be reduced by adding an anti-inflammatory agent.

## CCCC1O[C@@H]2C[C@H]3[C@@H]4CCC5=CC(=O)C=C[C@]5(C)[C@H]4[C@@H](O)C[C@]3(C)[C@]2(C(=O)CO)O1 (stereo partly drawn) [budesonide]
Homo sapiens, BEAS-2B, budesonide alone at 5-times higher dose (0.5 nM), TNF-α-stimulated BEAS-2B
  inhibition at 0.0005 µM: 50%
Budesonide alone at 5-times higher dose (0.5 nM), TNF-α-stimulated BEAS-2B, 0.0005 µM
  inhibition of IL-8 release: 55%
Budesonide alone, 0.1 nM, BEAS-2B
  effect on the release of IL-8 induced by TNF-α: do not have any effect; also recorded: no effect

Source: US20240342227A1, “COMBINATION OF E. FAECALIS AND AN ANTI-INFLAMMATORY AGENT AND USES THEREOF IN THE PREVENTION AND/OR TREATMENT OF RESPIRATORY DISEASES” (INSTITUT NATIONAL DE RECHERCHE POUR L'AGRICULTURE, …, priority 2021, published 2024)
